In patent publication US20230263164A1 (priority 2020, published 2023):
Where a name gives a salt, the structure may show the parent alone. Read-outs that look alike come from different tables or passages of the source.

What was measured:
corn plants = format: in vivo
[1] = not given; remark: listed apart in the source
[2] = 90% H2O/D2O; for Percent Degradation: 31P NMR
physchem = conditions: buffer, t1/2 (days) of first step
[3] = format: physicochemical
people = conditions: cited from earlier work
radish = conditions: cited from earlier work
lettuce plants = conditions: in vivo; cited from earlier work
peas = conditions: in vivo; cited from earlier work
soybeans = test: Field trial: harvest yield of soybeans; format: in vivo; conditions: 2 kg (per acre), side dressing, vs plants not exposed
Text: All essential plant nutrients (N, P, K, and S) were applied in non-limiting amounts. Prior to planting soybeans, the fields were fertilized with 60 lb acre of P2O5, 80 lb per acre of K2O, and 20 lb per acre of sulfur. The soybean seeds were a 2.8-3.2 relative maturity planted at 120,000 to 140,000 seeds per acre. All field management were designed to effectively control weed and insect pests to optimize soybean growth and yield. The soybeans were planted and either 0, 0.5, 1.0, or 2.0 kg per acre of dibutyldithiophosphate was applied as a side dressing to the soybean plants. The dibutyldithiophosphate was dissolved in water and applied. The harvest weight was determined for each plot and corrected for slight differences in moisture content.

pea plants = test: Growth of peas exposed to dibutyldithiophosphate (pots, 88 days); format: in vivo
Description: Peas were planted and grown in 8.25 inch TEKU pots. The pots were packed finger tight with potting mix #4 from Beautiful Land Products. The pea seeds were planted approximately 1.5 inches deep. 25 seeds were planted per dosing of dibutyldithiophosphate potassium salt. After the seeds were planted into the soil the desired amount of dibutyldithiophosphate for 32 doses was added to 160 mL of tap water. After mixing well for 10 minutes, 5 mL of the dibutyldithiophosphate solution was then added to the top of each seed after it was planted in the soil. Soil was then used to cover the seed. After adding the salt, the plants were moved outside in full sunlight until harvest. The pea plants were watered daily. Peter's Professional B 20-20-20 water soluble fertilizer was used at 1 tablespoon per 3 gallons of tap water and 350 mL of this solution was added to each plant. Plants were fertilized on day 44, 51, 66, 73, and 81.
The pea plants were harvested after 88 days. The plant was harvested by cutting the above soil portion of the plant at the root-stem boundary. The above ground portion of the plant was weighed in its entirety. Next the pods were removed, counted and weighed separately from the rest of the plant. Statistical analysis was performed using IBM SPSS Statistics 25. Dunnett's 2-sided t-test was performed to determine significance. Data represented are mean±standard error with ** indicating α<0.05 and * indicating α<0.1.

[4] = 85° C., 90% H2O/D2O, only phosphoric acid observed
[5] = water buffered at pH 6.7, FIG. 4
[6] = hydrolysis, rate constants 25 to 85° C.
[7] = 20 mg per plant, potassium salt, 88 days

CCCCOP(=S)(S)OCCCC [Example 1, Dibutyldithiophosphate Ammonium Salt]
Rate of first-step of hydrolysis (85° C.) (85° C., 90% H2O/D2O): 0.00096 h⁻¹ | Time to complete hydrolysis [4]: 180 days | rate of hydrolysis, fold slower than the compound of Example 2 (85° C., Table 2): 3.5 × | rate of hydrolysis, fold slower than the dithiophosphate of Example 3 (85° C., Table 2): 7.4 × | rate of hydrolysis, fold slower than the dithiophosphate of Example 4 (85° C., Table 2): 1.4 × | increase in weight of corn plants (corn plants; 1 mg ammonium salt added to soil adjacent to seed, 4 weeks, vs plants grown without): 39% | release of H2S (rank among the dithiophosphates) [1, 5]: lowest release of H2S | Percent Degradation ([2]; 30 days, room temperature): <3%

S=P1(S)OCCO1 [Example 2]
half-life (physchem): 204 h

CC1COP(=S)([S-])O1.[K+] (stereo not drawn) [Example 3]
half-life (physchem): 98.4 h

CC(C)[C@@H]1CC[C@@H](C)C[C@H]1OP(=S)([S-])O[C@@H]1C[C@H](C)CC[C@H]1C(C)C.[K+] [Example 5]
release of H2S ([1]; pH 6.7): released H2S

CCc1ccc(OP(=S)([S-])Oc2ccc(CC)cc2)cc1.[K+] [Example 6]
half-life (physchem): 93.6 h

CC(C)(C)OP(=S)(S)OC(C)(C)C [Example 8, di(tert-butanol)dithiophosphate Sodium Salt]
Rate of first-step of hydrolysis (85° C.) (85° C., 90% H2O/D2O): 13.2 h⁻¹ | Time to complete hydrolysis [4]: 0.0493 days | rate of hydrolysis, fold slower at room temperature than at 85° C. (room temperature vs 85° C.): 2,600 × | Rate of first-step of hydrolysis (room temperature, 90% H2O/D2O): 0.0051 h⁻¹ | Time to complete hydrolysis (room temperature, 90% H2O/D2O): 30 days | ΔG^‡ (25° C.) ([3]; 25° C.): 25.26 kcal/mol | −TΔS^‡ (25° C.) ([3]; 25° C.): -2.58 kcal/mol | ΔΔG^‡ ([3]; 25° C. vs 85° C.): 0.526 kcal/mol | ΔG^‡ (85° C.) ([3]; 85° C.): 24.74 kcal/mol | sign of ΔS^‡ (in words) ([3]; hydrolysis): positive | ΔH^‡ [3, 6]: 27.84 kcal/mol | ΔS^‡ [3, 6]: 36.3 J/mol · K | release of H2S (rank among the dithiophosphates) [1, 5]: highest release of H2S | hydrolysis after 30 days ([2]; room temperature, 30 days): completely hydrolyzed | Percent Degradation ([2]; 30 days, room temperature): 100% | percent degraded ([2]; day 12, room temperature): 62% | percent degraded ([2]; day 20, room temperature): 88%

CCCSP(=S)(S)SCCC [Example 10]
half-life (physchem): 3.12 h

S=P1(S)SCCS1 [Example 11]
half-life (physchem): 2.04 h

S=P1(S)SCCCS1 [Example 12]
half-life (physchem): 36 h

S=P(S)(Sc1ccccc1)Sc1ccccc1 [Example 13]
half-life (physchem): 31.2 h

S=P1(S)OCCS1 (stereo not drawn) [Example 14]
release of H2S (rank among the dithiophosphates) ([1]; pH 6.7): highest release of H2S

S [Example H2S, hydrogen sulfide]
level in the air that can lead to negative health effects (headaches, breathing problems in asthma) (people; exposure in the air): 2 ppm | level immediately dangerous to life and health (people; exposure): 100 ppm

C1COCCN1.COc1ccc(P(=S)(S)N2CCOCC2)cc1 (stereo not drawn) [GYY-4137]
growth of radish plants (radish; in vivo): increased the growth | harvest yield of radishes (radish; milligram loadings): doubled | growth of lettuce plants (lettuce plants): increased the growth | growth of pea plants (peas): increased the growth

CCCCOP(=S)(S)OCCCC [dibutyldithiophosphate]
increase in harvest yield of soybeans (soybeans): 4.4% | number of pods, plant weight and total pod weight (pea plants; 10 mg per plant, potassium salt, 88 days): statistically significant increase | increase in number of pods (pea plants; [7]): 55% | increase in plant weight (pea plants; [7]): 46% | increase in total pod weight (pea plants; [7]): 45% | germination compared to the control plants (pea plants; 150 mg and 500 mg, potassium salt): reduction in germination | number of plants germinating (pea plants; 150 mg, 25 seeds planted per dosing): 6 plants | germination of seeds (pea plants; 500 mg): None of the seeds | heights of corn plants (corn plants; in vivo): Little statistically significant difference | weight of corn plants (corn plants; in vivo): improvements in weights | weight of corn plants (significance) (corn plants; in vivo): statistically significant improvements
